These results are taken from patent US20090181989A1, “Purine Compunds as HSP90 Protein Inhibitors for the Treatment of Cancer” (VERNALIS ( R & D) LTD., priority 2005, published 2009).

For orientation: IC50 means the concentration needed to halve the response being measured. High values mean weaker potency in that assay, low ones greater potency in that assay.

This assay concerns the target T1, human full-length HSP90 (Homo sapiens, UniProt P08238).
T1 construct: E. coli expressed human full-length HSP90 protein; made in house; host or cells: E. coli
Kind of assay: Fluorescence polarization assay (competitive displacement of fluorescein-labelled probe VER00051001-FAM from HSP90). The class given is binding. The conditions noted are these: activity range in the fluorescence polarization assay; E. coli expressed human full-length HSP90 200 nM, probe 80 nM. The text has this:
Fluorescence Polarization Assay
Fluorescence polarization {also known as fluorescence anisotropy} measures the rotation of a fluorescing species in solution, where the larger molecule the more polarized the fluorescence emission. When the fluorophore is excited with polarized light, the emitted light is also polarized. The molecular size is proportional to the polarization of the fluorescence emission.
The fluoroscein-labelled probe-VER00051001-FAM-
binds to HSP90 {full-length human, full-length yeast or N-terminal domain HSP90} and the anisotropy {rotation of the probe:protein complex} is measured.
Test compound is added to the assay plate, left to equilibrate and the anisotropy measured again. Any change in anisotropy is due to competitive binding of compound to HSP90, thereby releasing probe.
Chemicals are of the highest purity commercially available and all aqueous solutions are made up in AR water. • 1) Costar 96-well black assay plate #3915 • 2) Assay buffer of (a) 100 mM Tris pH7.4; (b) 20 mM KCl; (c) 6 mM MgCl2. Stored at room temperature. • 3) BSA (bovine serum albumen) 10 mg/ml (New England Biolabs # B9001S) • 4) 20 mM probe in 100% DMSO stock concentration. Stored in the dark at RT. Working concentration is 200 nM diluted in AR water and stored at 4° C. Final concentration in assay 80 nM. • 5) E. coli expressed human full-length HSP90 protein, purified >95% (see, e.g., Panaretou et al., 1998) and stored in 50 μL aliquots at −80° C.
• 1) Add 100 μl 1× buffer to wells 11A and 12A(═FPBLNK) • 2) Prepare assay mix—all reagents are kept on ice with a lid on the bucket as the probe is light-sensitive.
• 3) Aliquot 100 μl assay mix to all other wells • 4) Seal plate and leave in dark at room temp for 20 minutes to equilibrate Compound Dilution Plate—1×3 dilution series • 1) In a clear 96-well v-bottom plate—{# VWR 007/008/257} add 10 μl 100% DMSO to wells B1 to H11 • 2) To wells A1 to A11 add 17.5 μl 100% DMSO • 3) Add 2.5 μl cpd to A1. This gives 2.5 mM {50×} stock cpd—assuming cpds 20 mM. • 4) Repeat for wells A2 to A10. Control in columns 11 and 12. • 5) Transfer 5 μl from row A to row B- not column 12. Mix well. • 6) Transfer 5 μl from row B to row C. […] In column 11 {provides standard curve} only add compound B11-H11. Add 2 μl of 100 mM standard cpd to wells B12-H12 {is positive control} • 13) The Z′ factor is calculated from zero controls and positive wells. It typically gives a value of 0.7-0.9.
The compounds tested in the above assay were assigned to one of two activity ranges, namely A=<10 μM; B=>10 μM, and those assignments are reported above.
On the technique in general: In fluorescence polarisation assays a small probe gives low polarisation when free and higher when bound to something large.

Bounds are passed on as bounds.

T1 sequence (P08238 whole entry): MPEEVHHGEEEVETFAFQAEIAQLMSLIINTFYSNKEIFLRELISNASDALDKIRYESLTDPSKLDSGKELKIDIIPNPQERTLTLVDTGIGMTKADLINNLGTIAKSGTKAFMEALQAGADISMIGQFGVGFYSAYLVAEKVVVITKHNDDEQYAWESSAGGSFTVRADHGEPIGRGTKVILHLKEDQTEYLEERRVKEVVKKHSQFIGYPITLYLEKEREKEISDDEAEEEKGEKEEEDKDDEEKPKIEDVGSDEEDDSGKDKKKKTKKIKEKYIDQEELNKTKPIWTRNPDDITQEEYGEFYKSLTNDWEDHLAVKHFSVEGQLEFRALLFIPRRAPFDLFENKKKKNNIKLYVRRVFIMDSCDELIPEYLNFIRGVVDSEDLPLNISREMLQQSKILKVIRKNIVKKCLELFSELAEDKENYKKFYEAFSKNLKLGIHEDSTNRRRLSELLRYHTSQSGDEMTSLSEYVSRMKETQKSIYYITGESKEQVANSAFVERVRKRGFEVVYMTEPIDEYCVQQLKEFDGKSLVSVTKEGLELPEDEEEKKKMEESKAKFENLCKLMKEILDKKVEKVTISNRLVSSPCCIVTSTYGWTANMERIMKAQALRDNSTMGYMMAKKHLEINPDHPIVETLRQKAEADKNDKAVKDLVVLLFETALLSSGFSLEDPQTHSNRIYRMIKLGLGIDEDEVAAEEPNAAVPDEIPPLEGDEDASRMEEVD

Compound `Clc1ccc(-c2nc(Cl)nc3[nH]cnc23)c(Cl)c1` [Example 1, 2-Chloro-6-(2,4-dichloro-phenyl)-9H-purine] displayed an IC50 of less than 10 µM.

In turn, `Clc1nc(-c2cc(OCc3ccccc3)c(Cl)cc2Cl)c2nc[nH]c2n1` [Example 2, 6-(5-Benzyloxy-2,4-dichloro-phenyl)-2-chloro-9H-purine] displayed an IC50 of less than 10 µM.

As for `Cc1ccc(-c2nc(Cl)nc3[nH]cnc23)c(C)c1` [Example 3], the IC50 is less than 10 µM.

For `Cc1ccc(-c2nc(Cl)nc3[nH]cnc23)c2ccccc12` [Example 4], the IC50 is more than 10 µM.

`Clc1nc(-c2ccc3c(c2)CCO3)c2nc[nH]c2n1` [Example 5]: the IC50 is more than 10 µM.

`N#Cc1ccc(-c2nc(Cl)nc3[nH]cnc23)cc1` [Example 6] yielded an IC50 of less than 10 µM.

Consider `Cc1ccc(-c2nc(Cl)nc3[nH]cnc23)c(Cl)c1` [Example 8], for which the 50% inhibitory concentration (IC50) is less than 10 µM.

For the compound `Cc1cc(Cl)ccc1-c1nc(Cl)nc2[nH]cnc12` [Example 9], the half-inhibitory concentration (IC50) was less than 10 µM.

Take `Cc1cc(F)ccc1-c1nc(Cl)nc2[nH]cnc12` [Example 10]: the IC50 is less than 10 µM.

Consider `Clc1nc(-c2ccccc2)c2nc[nH]c2n1` [Example 11], for which the IC50 is less than 10 µM.

Consider `CSc1nc(-c2cc(OCc3ccccc3)c(Cl)cc2Cl)c2nc[nH]c2n1` [Example 12, 6-(5-benzyloxy-2,4-dichloro-phenyl)-2-methylsulfanyl-9H-purine], for which the IC50 was less than 10 µM.

`CSc1nc(-c2ccc(C#N)cc2)c2nc[nH]c2n1` [Example 13, 6-(4-cyano-phenyl)-2-methylsulfanyl-9H-purine] showed an IC50 of less than 10 µM.

`CSc1nc(-c2ccc(Cl)cc2Cl)c2nc[nH]c2n1` [Example 14, 6-(2,4-dichloro-phenyl)-2-methylsulfanyl-9H-purine] showed an IC50 of less than 10 µM.

The compound `CSc1nc(-c2ccc(F)cc2C)c2nc[nH]c2n1` [Example 15, 6-(2-methyl-4-fluoro-phenyl)-2-methylsulfanyl-9H-purine] had an IC50 of less than 10 µM.

`CCNC(=O)CSc1nc(-c2ccc(Cl)cc2Cl)c2nc[nH]c2n1` [Example 16] showed an IC50 of less than 10 µM.

Consider `CSc1nc(-c2ccc3ccccc3c2)c2nc[nH]c2n1` [Example 17], for which the IC50 is more than 10 µM.

`Clc1ccc(-c2nc(Sc3nc[nH]n3)nc3[nH]cnc23)c(Cl)c1` [Example 18] registered an IC50 of less than 10 µM.

For the compound `CSc1nc(-c2ccc(Cl)cc2C)c2nc[nH]c2n1` [Example 19], the concentration for half-maximal inhibition (IC50) is less than 10 µM.

Compound `CCOC(=O)CSc1nc(-c2ccc(Cl)cc2Cl)c2nc[nH]c2n1` [Example 20] displayed an IC50 of less than 10 µM.

As to `CCNC(=O)C(C)(C)Sc1nc(-c2ccc(Cl)cc2Cl)c2nc[nH]c2n1` [Example 21], the concentration for half-maximal inhibition (IC50) is more than 10 µM.

In turn, `CN(C)CCSc1nc(-c2ccc(Cl)cc2Cl)c2nc[nH]c2n1` [Example 22] showed an IC50 of less than 10 µM.

On to `COc1nc(-c2ccc(Cl)cc2Cl)c2nc[nH]c2n1` [Example 23, 6-(2,4-Dichloro-phenyl)-2-methoxy-9H-purine], for which the IC50 was less than 10 µM.

In turn, `CCN(CC)Cc1ccc(COc2cc(-c3nc(Cl)nc4[nH]cnc34)c(Cl)cc2Cl)cc1` [Example 24, {4-[2,4-Dichloro-5-(2-chloro-9H-purin-6-yl)-phenoxymethyl]-benzyl}-diethyl-amine] had an IC50 of less than 10 µM.

Consider `CS(=O)(=O)c1nc(-c2ccc(Cl)cc2Cl)c2nc[nH]c2n1` [Example 25, 6-(2,4-Dichloro-phenyl)-2-methanesulfonyl-7H-purine], for which the half-maximal inhibitory concentration (IC50) is more than 10 µM.

Consider `C[S+]([O-])c1nc(-c2ccc(Cl)cc2Cl)c2nc[nH]c2n1` (stereo not drawn) [Example 26, 6-(2,4-Dichloro-phenyl)-2-methanesulfinyl-7H-purine], for which the IC50 is more than 10 µM.

`Cc1cc(Cl)c(-c2nc(Cl)nc3[nH]cnc23)cc1O` [Example 27, 4-Chloro-5-(2-chloro-9H-puriny-6-yl)-2-methyl-phenol] displayed an IC50 of less than 10 µM.

For the compound `CCN(CC)CCOc1cc(-c2nc(Cl)nc3[nH]cnc23)c(Cl)cc1C` [Example 28, {2-[4-Chloro-5-(2-chloro-9H-purin-6-yl)-2-methyl-phenoxy]-ethyl}-diethyl-amine], the IC50 was less than 10 µM.

Regarding `CCN(CC)CCOc1cc(-c2nc(SC)nc3[nH]cnc23)c(Cl)cc1C` [Example 29, {2-[4-Chloro-2-methyl-5-(2-methylsulfanyl-9H-purin-6-yl)-phenoxy]-ethyl}-diethyl-amine], the IC50 was less than 10 µM.

On to `CCNC(=O)CSc1nc(-c2cc(OCCN(CC)CC)c(C)cc2Cl)c2nc[nH]c2n1` [Example 30, 2-{6-[2-Chloro-5-(2-diethlamino-ethoxy)-4-methyl-phenyl]-9H-purin-2-ylsulfanyl}-N-ethyl Acetamide], for which the 50% inhibitory concentration (IC50) is less than 10 µM.

Consider `CSc1nc(-c2ccc(C)cc2C)c2nc(Cl)[nH]c2n1` [Example 31, 8-Chloro-6-(2,4-dimethyl-phenyl)-2-methylsulfanyl-9H-purine], for which the IC50 is more than 10 µM.

`CSc1nc(-c2ccc(C)cc2C)c2nc(C)[nH]c2n1` [Example 32, 6-(2,4-Dimethyl-phenyl)-8-methyl-2-methylsulfanyl-9H-purine] had an IC50 of more than 10 µM.

`CSc1nc(-c2ccc(C)cc2C)c2nc(C#N)[nH]c2n1` [Example 33, 6-(2,4-Dimethyl-phenyl)-2-methylsulfanyl-9H-purine-8-carbonitrile] displayed a half-maximal inhibitory concentration (IC50) of more than 10 µM.

As for `CN(C)CCCOc1cc(-c2nc(Cl)nc3[nH]cnc23)c(Cl)cc1Cl` [Example 34, {3-[2,4-Dichloro-5-(2-chloro-9H-purin-6-yl)-phenoxy]-propyl}-dimethyl-amine], the IC50 was less than 10 µM.

`CCN(CC)CCOc1cc(-c2nc(Cl)nc3[nH]cnc23)c(Cl)cc1Cl` [Example 35, {2-[2,4-Dichloro-5-(2-chloro-9H-purin-6-yl)-phenoxy]-ethyl}-diethyl-amine] returned an IC50 of less than 10 µM.

As for `Clc1nc(-c2cc(OCCN3CCCC3)c(Cl)cc2Cl)c2nc[nH]c2n1` [Example 36, 2-Chloro-6-[2,4-dichloro-5-(2-pyrrolidin-1-yl-ethoxy)-phenyl]-9H-purine], the IC50 is less than 10 µM.

Compound `O=C1CCCN1CCOc1cc(-c2nc(Cl)nc3[nH]cnc23)c(Cl)cc1Cl` [Example 37, 1-{2-[2,4-Dichloro-5-(2-chloro-9H-purin-6-yl)-phenoxy]-ethyl}-pyrrolidin-2-one] registered an IC50 of less than 10 µM.
